From US8975417B2, “Pyrazolopyrrolidine derivatives and their use in the treatment of disease” (Novartis AG, priority 2013, dated 2015)

Columns and labels:
His-Brd3(20-477) = His-Brd3(20-477) (Homo sapiens (Human), UniProt Q15059); test: TR-FRET in-vitro binding assay for BRD3; conditions: biochemical
In short: (§1)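 Eight-point dilution series tested against in-house His-BRD2(60-472), BRD3(20-477) or BRD4(44-477) (45 nM in dispensed solution) binding acetyl-histone H4 (AcK5,8,12,16; 60 nM in dispensed solution). Incubation 35 min at 30 °C, pH 7.5 HEPES buffer; detection by TR-FRET using Eu-anti-His6 and streptavidin-allophycocyanin.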

His-Brd4(44-477) = His-Brd4(44-477) (Homo sapiens (Human), UniProt O60885); test: TR-FRET in-vitro binding assay for BRD4; conditions: biochemical
In short: as §1

MV-4-11 cells = test: Cell growth inhibition assay (CellTiter-Glo), MV-4-11; format: cell-based; conditions: Homo sapiens, MV4-11, read-out: MV-4-11 TGI
Description: (§2) Cell Growth Inhibition Assay
(§3) The human leukemia cell lines MV-4-11, THP-1 and K-562 were employed to characterize the effect of BET inhibitors on cellular proliferation and viability. Cells were obtained from the American Type Culture Collection (ATCC) and cultured at 37° C. in a humidified 5% CO2 incubator in the following media: MV-4-11: DMEM high glucose (Animed #1-26F01-I), 10% FCS (Animed #2-01F26-I), 4 mM L-Glutamine (Animed #5-10K50), 1 mM Sodium Pyruvate (Animed # G03625P), 1× Penicillin-Streptomycin (Animed # F12478P); K-562: Iscove's MEM (Animed #1-28F16-I), 10% FCS (Animed #2-01F26-I), 4 mM L-Glutamine (Animed #5-10K50), 1× Penicillin-Streptomycin (Animed # F12478P); THP-1: RPMI-1640 (Animed #1-41F01-I), 10% FCS (Animed #2-01F26-I), 2 mM L-Glutamine (Animed #5-10K50), 10 mM HEPES (Animed #5-31F100), 1 mM Sodium Pyruvate (Animed # G03625P), 1× Penicillin-Streptomycin (Animed # F12478P). The AML lines MV-4-11 and THP-1 are very sensitive to BET inhibitors and show massive cell death upon BET inhibition (Zuber et al., Nature, 478 (2011), 524-8). Compound-mediated suppression of cell proliferation/viability was assessed by quantification of cellular ATP levels using the CellTiter-Glo (CTG) reagent (Promega). Briefly, cells were seeded in 20 μl fresh medium into 384-well plates, followed by addition of 5 μL medium containing compound dilutions at 5-fold their final intended concentration. Dose-response effects were assessed by 3-fold serial dilutions of the test compound, starting at 10 μM. Following incubation of the cells for days at 37° C. and 5% CO2, the effect of inhibitors on cell viability was quantified following addition of 20 μl CTG and luminescence quantification (integration time: 100 ms) as per vendor manual, using a correspondingly equipped Tecan M200 multi-mode platereader (TECAN, Switzerland). For data analysis, the assay background value determined in wells containing medium, but no cells, was subtracted from all data points. To enable differentiation of cytotoxic from cytostatic compounds, the number of viable cells is assessed relative to that observed at the time of compound addition using a separate cell plate (day 0). The effect of a particular test compound concentration on cell proliferation/viability is expressed as percentage of the background- and day 0-corrected luminescence reading obtained for cells treated with vehicle only (DMSO, 0.1% final concentration), which is set as 100%, whereas that luminescence reading for wells containing medium is set as −100%. Compound concentrations leading to half-maximal (IC50) and total growth inhibition (TGI) were determined using standard four parameter curve fitting.

[1] = molecular target: His-CREBBP (1081-1197) bromodomain (Homo sapiens (Human), UniProt Q92793); test: AlphaScreen in-vitro binding assay for CREBBP; conditions: biochemical
Chain of His-CREBBP (1081-1197) bromodomain (Q92793 1081-1197): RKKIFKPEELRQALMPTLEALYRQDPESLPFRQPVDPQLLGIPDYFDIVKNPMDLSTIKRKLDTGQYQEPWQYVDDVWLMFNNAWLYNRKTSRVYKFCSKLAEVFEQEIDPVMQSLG
In short: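 Ni-chelate acceptor and streptavidin donor beads (45 µg/mL each, in 50 mM HEPES pH 7.5, 150 mM NaCl, 0.02% BSA) were then added for 60 min at room temperature. IC50 came from 8-point non-linear regression.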

His-Brd2(60-472) = His-Brd2(60-472) (Homo sapiens (Human), UniProt P25440); test: TR-FRET in-vitro binding assay for BRD2; conditions: biochemical
Chain of His-Brd2(60-472) (P25440 60-472): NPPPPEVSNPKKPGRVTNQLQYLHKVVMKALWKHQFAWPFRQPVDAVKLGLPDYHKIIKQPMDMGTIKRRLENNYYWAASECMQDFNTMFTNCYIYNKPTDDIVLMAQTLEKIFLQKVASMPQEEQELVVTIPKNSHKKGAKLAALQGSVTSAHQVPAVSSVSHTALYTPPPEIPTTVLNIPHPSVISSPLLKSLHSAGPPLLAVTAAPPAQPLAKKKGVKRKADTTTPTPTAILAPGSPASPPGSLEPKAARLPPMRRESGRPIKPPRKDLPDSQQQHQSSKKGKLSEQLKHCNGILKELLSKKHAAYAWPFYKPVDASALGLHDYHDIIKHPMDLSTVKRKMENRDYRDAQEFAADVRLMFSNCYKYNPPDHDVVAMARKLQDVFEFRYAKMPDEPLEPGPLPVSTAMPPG
In short: as §1

THP-1 cells = test: Cell growth inhibition assay (CellTiter-Glo), THP-1; format: cell-based; conditions: Homo sapiens, read-out: THP-1 TGI
Description: as §2, §3

K-562 cells = test: Cell growth inhibition assay (CellTiter-Glo), K-562; format: cell-based, human; conditions: Homo sapiens, K562, read-out: K-562 TGI
Description: as §2, §3

Chain of His-Brd3(20-477) (Q15059 20-477): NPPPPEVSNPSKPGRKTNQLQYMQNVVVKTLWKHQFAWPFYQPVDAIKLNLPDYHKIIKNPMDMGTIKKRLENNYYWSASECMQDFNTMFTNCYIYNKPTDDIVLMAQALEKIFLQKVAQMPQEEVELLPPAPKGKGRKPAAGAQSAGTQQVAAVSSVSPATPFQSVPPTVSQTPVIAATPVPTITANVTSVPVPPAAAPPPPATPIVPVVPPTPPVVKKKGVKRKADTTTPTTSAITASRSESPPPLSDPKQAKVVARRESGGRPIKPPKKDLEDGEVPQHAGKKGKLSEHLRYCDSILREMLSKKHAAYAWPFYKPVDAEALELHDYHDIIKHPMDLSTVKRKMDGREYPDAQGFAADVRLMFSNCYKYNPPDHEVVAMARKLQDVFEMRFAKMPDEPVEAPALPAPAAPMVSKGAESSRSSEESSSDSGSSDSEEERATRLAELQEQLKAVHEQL

SMILES	IC50 (His-Brd3(20-477)) [µM]	IC50 (His-Brd4(44-477)) [µM]	IC (total growth inhibition) (MV-4-11 cells) [µM]	IC50 [1] [µM]	IC50 (His-Brd2(60-472)) [µM]	IC (total growth inhibition) (THP-1 cells) [µM]	IC (total growth inhibition) (K-562 cells) [µM]
COc1ncc(-n2nc3c(c2C(C)C)C(c2ccc(Cl)cc2)N(c2cc(C)c4nnc(C)n4c2)C3=O)c(OC)n1 (stereo not shown) [Example 67, 4-(4-chlorophenyl)-2-(2,4-dimethoxypyrimidin-5-yl)-5-(3,8-dimethyl-[1,2,4]triazolo-[4,3-a]pyridin-6-yl)-3-isopropyl-4,5-dihydropyrrolo[3,4-c]pyrazol-6(2H)-one]	0.028	0.024	0.0196	2.8	0.043	0.0385	> 10
Cc1nn(C(C)C)c2c1C(c1ccc(Cl)cc1F)N(c1cc(C)c(=O)n(C)c1)C2=O (stereo not shown) [Example 180, 4-(4-chloro-2-fluorophenyl)-5-(1,5-dimethyl-6-oxo-1,6-dihydropyridin-3-yl)-1-isopropyl-3-methyl-4,5-dihydropyrrolo[3,4-c]pyrazol-6(1H)-one]	0.071	0.083	0.108	2.4	0.089	0.186	> 10
CCc1c2c(nn1C1CC1)C(=O)N(c1cc(C)c(=O)n(C)c1)C2c1ccc(Cl)cc1 (stereo not shown) [Example 68]	0.04	0.044	0.0692	0.95	0.037	0.117	> 10
CCn1nc(C)c2c1C(=O)N(c1cc(C)c3nnc(C)n3c1)C2c1ccc(Cl)cc1F (stereo not shown) [Example 185, 4-(4-chloro-2-fluorophenyl)-5-(3,8-dimethyl-[1,2,4]triazolo[4,3-a]pyridin-6-yl)-1-ethyl-3-methyl-4,5-dihydropyrrolo[3,4-c]pyrazol-6(1H)-one]	0.036	< 0.037	0.0427	14.2	0.071	0.0877	> 10
Cc1nn(C2CC2)c2c1C(c1ccc(F)cc1F)N(c1cc(C)c3nnc(C)n3c1)C2=O (stereo not shown) [Example 176, 1-cyclopropyl-4-(2,4-difluorophenyl)-5-(3,8-dimethyl-[1,2,4]triazolo[4,3-a]pyridin-6-yl)-3-methyl-4,5-dihydropyrrolo[3,4-c]pyrazol-6(1H)-one]	0.09	0.1	0.0631	> 37	0.12	0.106	> 10
COc1ncccc1-n1nc(C)c2c1C(=O)N(c1cc(C)c3nnc(C)n3c1)C2c1ccc(Cl)cc1F (stereo not shown) [Example 184, 4-(4-chloro-2-fluorophenyl)-5-(3,8-dimethyl-[1,2,4]triazolo[4,3-a]pyridin-6-yl)-1-(2-methoxypyridin-3-yl)-3-methyl-4,5-dihydropyrrolo[3,4-c]pyrazol-6(1H)-one]	0.036	0.029	0.136	24	0.047	0.337	> 10
CCc1nn(-c2cnc(OC)nc2OC)c2c1C(c1ccc(Cl)cc1)N(c1cc(C)c(=O)n(C)c1)C2=O (stereo not shown) [Example 60, 4-(4-chlorophenyl)-1-(2,4-dimethoxypyrimidin-5-yl)-5-(1,5-dimethyl-6-oxo-1,6-dihydropyridin-3-yl)-3-ethyl-4,5-dihydropyrrolo[3,4-c]pyrazol-6(1H)-one]	0.12	0.14	0.154	8.8	0.16	0.302	> 10
